{"source": "ChEMBL document CHEMBL4376831", "about": "“Enhancing the Cell Permeability of Stapled Peptides with a Cyclic Cell-Penetrating Peptide” (J Med Chem, 2019)", "key": {"[1]": {"system": "SJSA-1", "assay": "Antiproliferative activity against human SJSA1 cells expressing wild-type p53 upto 20 uM incubated for 72 hrs by MTT assay", "format": "functional, cell-based"}, "[2]": {"system": "SW480", "assay": "Antiproliferative activity against human SW480 cells incubated for 72 hrs by MTT assay", "format": "functional, cell-based", "conditions": "SW480, 72 h"}, "[3]": {"system": "MCF7", "assay": "Antiproliferative activity against human MCF7 cells incubated for 72 hrs by MTT assay", "format": "functional, cell-based"}, "[4]": {"assay": "Permeability of the compound in human HeLa cells at 5 uM incubated for 2 hrs by flow cytometric analysis relative to CPP9", "format": "ADME, cell-based"}, "[5]": {"system": "HeLa", "assay": "Cytotoxicity against human HeLa cells incubated for 72 hrs using FAM-labeled compound by MTT assay", "format": "cell-based"}, "[6]": {"system": "HeLa", "assay": "Induction of cell membrane disruption in human HeLa cells incubated for 4 hrs using FAM-labeled compound by LDH assay", "format": "cell-based"}, "[7]": {"system": "SJSA-1", "conditions": "Homo sapiens"}, "[8]": {"system": "SJSA-1", "assay": "cells", "conditions": "Homo sapiens, SJSA-1, 72 h"}}, "note": "pEC50, pIC50: −log10 of the molar value. Activity calls are given as the source filed them. The rule behind the calls is not given here. *1 amine or outer side, *2 acyl side, *3 side chain or, on linkers, in order; H or OH if unused. Where a SMILES comes first, the peptide text is derived from it. Bridges are numbered along the chain shown (N, C = ends). [ ]: non-standard residue; d: D form. The star is where a group is joined. X2 = O=C(O)c1cc(C(=O)*)ccc1-c1c2ccc3cc(O)ccc3c2oc2c1ccc1cc(=O)ccc12; mXylylene = c1cc(C[*:1])cc(C[*:2])c1; AEEA = NCCOCCOCC(=O)O; βAla = NCCC(=O)O"}
{"compound": "CC(=O)N[C@@H](CC(C)C)C(=O)N[C@H](C(=O)N[C@@H](Cc1ccccc1)C(=O)N[C@H]1CC(=O)NCCCC[C@@H](C(=O)N[C@@H](CCC(N)=O)C(=O)N[C@@H](CC(C)C)C(=O)N[C@H](C(=O)N[C@@H](CO)C(=O)NCCOCCOCC(=O)N[C@@H](CCCCN)C(N)=O)[C@@H](C)O)NC(=O)[C@H](Cc2c[nH]c3ccccc23)NC(=O)[C@H](Cc2ccc(O)cc2)NC(=O)[C@H](Cc2cnc[nH]2)NC1=O)[C@@H](C)O", "note": "(Ac-LTFDHYWKQLTS[AEEA]K-NH2; lactam 4-8)", "values": [{"measurement": "Activity", "setting": "[1]", "result": "inactive"}]}
{"compound": "CC[C@H](C)[C@@H]1NC(=O)[C@@H](NC(=O)[C@H](CCC(=O)O)NC(=O)[C@@H]2CCCN2C(=O)[C@H](Cc2ccc(O)cc2)NC(=O)CNC(=O)CNC(C)=O)CC(=O)NCCCC[C@@H](C(=O)N[C@@H](Cc2cnc[nH]2)C(=O)N[C@@H](CC(C)C)C(=O)N[C@@H](CCC(N)=O)C(=O)N[C@@H](CCCNC(=N)N)C(=O)N[C@H](C(=O)N[C@H](C(=O)N[C@@H](CC(C)C)C(=O)NCCOCCOCC(=O)NCCOCCOCC(=O)N[C@@H](CNC(=O)[C@H](CCCNC(=N)N)NC(=O)[C@H](CCCNC(=N)N)NC(=O)[C@H](CCCNC(=N)N)NC(=O)[C@H](CCC(N)=O)NC(=O)[C@H](CCCNC(=N)N)NC(=O)[C@H](CCCNC(=N)N)NC(=O)[C@H](CCCCN)NC(=O)[C@H](CCCCN)NC(=O)[C@H](CCCNC(=N)N)NC(=O)CNC(=O)[C@H](Cc2ccc(O)cc2)NC(C)=O)C(N)=O)[C@@H](C)CC)C(C)C)NC(=O)[C@H](CC(=O)O)NC(=O)[C@H](CC(C)C)NC1=O", "values": [{"measurement": "pIC50", "setting": "[2]", "result": "< 4.70"}, {"measurement": "Activity", "setting": "[3]", "result": "Active"}]}
{"compound": "CC[C@H](C)[C@@H]1NC(=O)[C@@H](NC(=O)[C@H](CCC(=O)O)NC(=O)[C@@H]2CCCN2C(=O)[C@H](CC(N)=O)NC(=O)[C@H](CCC(=O)O)NC(=O)CCNC(=O)c2ccc(-c3c4ccc5cc(O)ccc5c4oc4c3ccc3cc(=O)ccc34)c(C(=O)O)c2)CSCc2cccc(c2)CSC[C@@H](C(=O)N[C@@H](Cc2cnc[nH]2)C(=O)N[C@H](C(=O)N[C@@H](CCC(N)=O)C(=O)N[C@@H](CCCNC(=N)N)C(=O)N[C@H](C(=O)N[C@@H](CCSC)C(N)=O)C(C)C)C(C)C)NC(=O)[C@H](CC(=O)O)NC(=O)[C@H](CC(C)C)NC1=O", "note": "({X2-βAla}-ENPECILDCHVQRVM-NH2; linker 5-9 via mXylylene)", "values": [{"measurement": "permeability", "setting": "[4]", "result": 2.5, "unit": "%"}]}
{"compound": "CC[C@H](C)[C@@H]1NC(=O)[C@@H](NC(=O)[C@H](CCC(=O)O)NC(=O)[C@@H]2CCCN2C(=O)[C@H](Cc2ccc(O)cc2)NC(=O)CNC(=O)CNC(C)=O)CC(=O)NCCCC[C@@H](C(=O)N[C@@H](Cc2cnc[nH]2)C(=O)N[C@@H](CC(C)C)C(=O)N[C@@H](CCC(N)=O)C(=O)N[C@@H](CCCNC(=N)N)C(=O)N[C@H](C(=O)N[C@H](C(=O)N[C@@H](CC(C)C)C(=O)NCCOCCOCC(=O)NCCOCCOCC(=O)N[C@@H](CNC(=O)[C@H](CCCNC(=N)N)NC(=O)[C@H](CCCNC(=N)N)NC(=O)[C@H](CCCNC(=N)N)NC(=O)[C@H](CCCNC(=N)N)NC(=O)[C@H](CCCNC(=N)N)NC(=O)[C@H](CCCNC(=N)N)NC(=O)[C@H](CCCNC(=N)N)NC(=O)[C@H](CCCNC(=N)N)NC(=O)[C@H](CCCNC(=N)N)NC(C)=O)C(N)=O)[C@@H](C)CC)C(C)C)NC(=O)[C@H](CC(=O)O)NC(=O)[C@H](CC(C)C)NC1=O", "values": [{"measurement": "pIC50", "setting": "[2]", "result": "< 4.70"}, {"measurement": "Activity", "setting": "[3]", "result": "Active"}]}
{"compound": "CC[C@H](C)[C@@H]1NC(=O)[C@@H](NC(=O)[C@H](CCC(=O)O)NC(=O)[C@@H]2CCCN2C(=O)[C@H](CC(N)=O)NC(=O)CCNC(=O)c2ccc(-c3c4ccc5cc(O)ccc5c4oc4c3ccc3cc(=O)ccc34)c(C(=O)O)c2)CSCc2cccc(c2)CSC[C@@H](C(=O)N[C@@H](Cc2cnc[nH]2)C(=O)N[C@H](C(=O)N[C@@H](CCC(N)=O)C(=O)N[C@@H](CCCNC(=N)N)C(=O)N[C@H](C(=O)N[C@@H](CCSC)C(N)=O)C(C)C)C(C)C)NC(=O)[C@H](CC(=O)O)NC(=O)[C@H](CC(C)C)NC1=O", "note": "({X2-βAla}-NPECILDCHVQRVM-NH2; linker 4-8 via mXylylene)", "values": [{"measurement": "permeability", "setting": "[4]", "result": 8.9, "unit": "%"}]}
{"compound": "CC(=O)N[C@@H](CCCNC(=N)N)C(=O)N[C@@H](CCCNC(=N)N)C(=O)N[C@@H](CCCNC(=N)N)C(=O)N[C@@H](CCCNC(=N)N)C(=O)N[C@@H](CCCNC(=N)N)C(=O)N[C@@H](CCCNC(=N)N)C(=O)N[C@@H](CCCNC(=N)N)C(=O)N[C@@H](CCCNC(=N)N)C(=O)N[C@@H](CCCNC(=N)N)C(=O)NCCCC[C@H](NC(=O)COCCOCCNC(=O)[C@H](CO)NC(=O)[C@@H](NC(=O)[C@H](CC(C)C)NC(=O)[C@H](CCC(N)=O)NC(=O)[C@@H]1CCCCNC(=O)C[C@H](NC(=O)[C@H](Cc2ccccc2)NC(=O)[C@@H](NC(=O)[C@H](CC(C)C)NC(C)=O)[C@@H](C)O)C(=O)N[C@@H](Cc2cnc[nH]2)C(=O)N[C@@H](Cc2ccc(O)cc2)C(=O)N[C@@H](Cc2c[nH]c3ccccc23)C(=O)N1)[C@@H](C)O)C(N)=O", "values": [{"measurement": "Activity", "setting": "[5]", "result": "Toxic"}, {"measurement": "Activity", "setting": "[6]", "result": "Toxic"}, {"measurement": "Activity", "setting": "[7]", "result": "inactive"}]}
{"compound": "COc1ccc(C2=N[C@@H](c3ccc(Cl)cc3)[C@@H](c3ccc(Cl)cc3)N2C(=O)N2CCNC(=O)C2)c(OC(C)C)c1", "note": "[NUTLIN-3]", "values": [{"measurement": "pEC50", "setting": "[8]", "result": 5.38}]}
{"compound": "CC(=O)N[C@@H](Cc1ccc(O)cc1)C(=O)NCC(=O)N[C@@H](CCCNC(=N)N)C(=O)N[C@@H](CCCCN)C(=O)N[C@@H](CCCCN)C(=O)N[C@@H](CCCNC(=N)N)C(=O)N[C@@H](CCCNC(=N)N)C(=O)N[C@@H](CCC(N)=O)C(=O)N[C@@H](CCCNC(=N)N)C(=O)N[C@@H](CCCNC(=N)N)C(=O)N[C@@H](CCCNC(=N)N)C(=O)NCCCC[C@H](NC(=O)COCCOCCNC(=O)[C@H](CO)NC(=O)[C@@H](NC(=O)[C@H](CC(C)C)NC(=O)[C@H](CCC(N)=O)NC(=O)[C@@H]1CCCCNC(=O)C[C@H](NC(=O)[C@H](Cc2ccccc2)NC(=O)[C@@H](NC(=O)[C@H](CC(C)C)NC(C)=O)[C@@H](C)O)C(=O)N[C@@H](Cc2cnc[nH]2)C(=O)N[C@@H](Cc2ccc(O)cc2)C(=O)N[C@@H](Cc2c[nH]c3ccccc23)C(=O)N1)[C@@H](C)O)C(N)=O", "values": [{"measurement": "Activity", "setting": "[5]", "result": "Toxic"}, {"measurement": "Activity", "setting": "[6]", "result": "Toxic"}, {"measurement": "Activity", "setting": "[7]", "result": "inactive"}]}
